Experimental data from patent publication US10577332B2, “Tetrazole derivatives” (Hoffmann-La Roche Inc., priority 2015, dated 2020).

What was measured:
human EAAT3 = biological target: T1, human EAAT3 (Homo sapiens, UniProt P43005); assay: FLIPR Membrane Potential (FMP) assay; type: cell-based; details: HEK-293 cells stably expressing human EAAT3; antagonist applied 15 min before L-glutamate at EC80; Kb by Cheng-Prusoff from IC50
T1 construct: expressed in transfected cells
T1 sequence (P43005 1-524): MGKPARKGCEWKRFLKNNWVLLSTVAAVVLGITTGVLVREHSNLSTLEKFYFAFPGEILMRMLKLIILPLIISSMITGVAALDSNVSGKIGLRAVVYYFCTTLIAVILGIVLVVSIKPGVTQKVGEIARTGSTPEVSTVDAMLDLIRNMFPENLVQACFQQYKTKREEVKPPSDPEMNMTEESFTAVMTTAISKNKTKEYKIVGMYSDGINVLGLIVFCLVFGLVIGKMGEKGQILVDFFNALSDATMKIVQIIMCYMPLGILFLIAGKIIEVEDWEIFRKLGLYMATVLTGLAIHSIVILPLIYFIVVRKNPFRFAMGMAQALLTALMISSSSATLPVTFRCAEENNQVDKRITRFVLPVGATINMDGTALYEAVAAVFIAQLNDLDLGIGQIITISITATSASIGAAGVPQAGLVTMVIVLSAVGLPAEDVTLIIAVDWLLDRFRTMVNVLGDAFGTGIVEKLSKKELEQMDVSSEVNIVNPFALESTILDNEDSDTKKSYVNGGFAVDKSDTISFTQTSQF
Experimental: The FLIPR Membrane Potential (FMP) Assay
HEK-293 cells stably expressing human EAAT3 were seeded at 55 000 cells/well in growth medium (DMEM glutamate free (Invitrogen 11960-044), 1% Pen Strep (10 ml/l GIBCO BRL No 15140-023), 10% FCS non dialysed heat inactivated, 5 mg/l puromycin) in poly-D-lysine treated 96-well black microtiter plates with clear-bottom. After 24 h, the growth medium was removed and 100 μl/well of Krebs buffer (140 mM NaCl, 4.7 mM KCl, 2.5 mM CaCl2, 1.2 mM MgCl2, 11 mM HEPES, 10 mM D-glucose, pH=7.4) added. The cells were then loaded by adding 100 μl/well FMP assay dye (FLIPR Membrane Potential assay reagent, Molecular Devices). The 96-well plates were then incubated at 37° C. for 1 h. The depolarization of the cells will cause more dye to enter in the cells, where it will bind to intracellular proteins and lipids and cause an increase in the fluorescence signal. Antagonist potency at human EAAT3 was determined by using L-glutamate as agonist at a concentration which gives 80% of the maximum response. The antagonists were applied 15 min before the application of the agonist L-glutamate. The assays were performed at room temperature and measurements done by using a Fluorometric Imaging Plate Reader (FLIPR, Molecular Devices) and filter #2. Responses were measured as peak increase in fluorescence minus basal (i.e. fluorescence without addition of L-glutamate). Kb was determined using the Cheng-Prusoff equation Kb=IC50/[1+(A/EC50)], where IC50 is the concentration of the antagonist producing 50% inhibition, A is the concentration of the agonist against which the IC50 is being determined (at EC80) and EC50 is the concentration of the agonist producing 50% […].

| Compound | Kb (human EAAT3) | melting point |
| --- | --- | --- |
| CC(C)(NC(=O)c1cc(-c2ccc(F)cc2)cc(-n2cnnn2)c1)C(F)(F)F [Example 18, 3-(4-Fluorophenyl)-5-(tetrazol-1-yl)-N-(1,1,1-trifluoro-2-methylpropan-2-yl)-benzamide] | 430 nM | 175 °C |
| CC(C)(C#N)NC(=O)c1cc(-c2ccc(F)cc2)cc(-n2nnnc2C(C)(C)C)c1 [Example 100, 3-(5-tert-Butyltetrazol-1-yl)-N-(2-cyanopropan-2-yl)-5-(4-fluorophenyl)-benzamide] | 230 nM | 115 °C |
| Cc1nnnn1-c1cc(C(=O)NC(C)(C)C2CC2)cc(-c2ccc(Cl)cc2)c1 [Example 83, 3-(4-Chlorophenyl)-N-(2-cyclopropylpropan-2-yl)-5-(5-methyltetrazol-1-yl)-benzamide] | 180 nM | 85 °C |
| CC(C)(C)c1nnnn1-c1cc(C(=O)NC(C)(C)C(F)(F)F)cc(-c2ccc(C(F)(F)F)cc2)c1 [Example 116, 3-(5-tert-Butyltetrazol-1-yl)-5-[4-(trifluoromethyl)-phenyl]-N-(1,1,1-trifluoro-2-methylpropan-2-yl)-benzamide] | 550 nM | 108 °C |
| Cc1ccc(-c2cc(C(=O)NC(C)(C)CO)cc(-n3nnnc3C(C)C)c2)cc1 [Example 14, N-(1-Hydroxy-2-methylpropan-2-yl)-3-(4-methylphenyl)-5-(5-propan-2-yltetrazol-1-yl)-benzamide] | 650 nM | 75 °C |
| CCC(C)(C)NC(=O)c1cc(-c2ccc(C(F)(F)F)cc2)cc(-n2nnnc2C(C)C)c1 [Example 46, N-(2-Methylbutan-2-yl)-3-(5-propan-2-yltetrazol-1-yl)-5-[4-(trifluoro-methyl)-phenyl]-benzamide] | 190 nM | 89 °C |
| CC(C)(CO)NC(=O)c1cc(-c2ccc(Cl)cc2)cc(-n2nnnc2C(F)(F)F)c1 [Example 76, 3-(4-Chlorophenyl)-N-(1-hydroxy-2-methylpropan-2-yl)-5-[5-(trifluoromethyl)-tetrazol-1-yl]-benzamide] | 300 nM | 89 °C |
| CC(C)(NC(=O)c1cc(-c2ccc(Cl)cc2)cc(-n2nnnc2C2CC2)c1)C1CC1 [Example 81, 3-(4-Chlorophenyl)-N-(2-cyclopropylpropan-2-yl)-5-(5-cyclopropyl-tetrazol-1-yl)-benzamide] | 210 nM | 95 °C |
| Cc1ccc(-c2cc(C(=O)NC(C)(C)C)cc(-n3nnnc3C3CC3)c2)cc1 [Example 29, N-tert-Butyl-3-(5-cyclopropyltetrazol-1-yl)-5-(4-methylphenyl)-benzamide] | 200 nM | 91 °C |
| CCc1nnnn1-c1cc(C(=O)NC2(C)CCS(=O)(=O)C2)cc(-c2ccc(C)cc2)c1 (racemic) [Example 34, (RS)-3-(5-Ethyltetrazol-1-yl)-N-(3-methyl-1,1-dioxothiolan-3-yl)-5-(4-methylphenyl)-benzamide] | 270 nM | 122 °C |
| CC(C)(C)c1nnnn1-c1cc(C(=O)NC(C)(C)C(F)(F)F)cc(-c2ccc(Cl)c(F)c2)c1 [Example 119, 3-(5-tert-Butyltetrazol-1-yl)-5-(4-chloro-3-fluorophenyl)-N-(1,1,1-trifluoro-2-methylpropan-2-yl)-benzamide] | 350 nM | 222 °C |
| CC(C)c1nnnn1-c1cc(C(=O)NC2(C)CCS(=O)(=O)C2)cc(-c2ccc(F)cc2)c1 (racemic) [Example 63, (RS)-3-(4-Fluorophenyl)-N-(3-methyl-1,1-dioxothiolan-3-yl)-5-(5-propan-2-yltetrazol-1-yl)-benzamide] | 650 nM | 112.5 °C |
| CC(C)(C)NC(=O)c1cc(-c2ccc(F)c(F)c2)cc(-n2nnnc2C(C)(C)C)c1 [Example 106, N-tert-Butyl-3-(5-tert-butyltetrazol-1-yl)-5-(3,4-difluorophenyl)-benzamide] | 260 nM | 225.5 °C |
| CC1(NC(=O)c2cc(-c3ccc(F)cc3)cc(-n3cnnn3)c2)CCS(=O)(=O)C1 (racemic) [Example 4, (RS)-3-(4-Fluorophenyl)-N-(3-methyl-1,1-dioxothiolan-3-yl)-5-(tetrazol-1-yl)-benzamide] | 460 nM | 146.5 °C |
| Cc1ccc(-c2cc(C(=O)NC(C)(C)C(F)(F)F)cc(-n3cnnn3)c2)cc1 [Example 13, 3-(4-Methylphenyl)-5-(tetrazol-1-yl)-N-(1,1,1-trifluoro-2-methylpropan-2-yl)-benzamide] | 650 nM | 190.5 °C |
| CCc1nnnn1-c1cc(C(=O)NC(C)(C)C2CC2)cc(-c2ccc(C)cc2)c1 [Example 36, N-(2-Cyclopropylpropan-2-yl)-3-(5-ethyltetrazol-1-yl)-5-(4-methylphenyl)-benzamide] | 350 nM | 59.5 °C |
| CCC(C)(C)NC(=O)c1cc(-c2ccc(Cl)cc2)cc(-n2nnnc2C(C)(C)C)c1 [Example 90, 3-(5-tert-Butyltetrazol-1-yl)-5-(4-chlorophenyl)-N-(2-methylbutan-2-yl)-benzamide] | 170 nM | 119 °C |
| CC(C)(C#N)NC(=O)c1cc(-c2ccc(Cl)c(F)c2)cc(-n2nnnc2C(C)(C)C)c1 [Example 121, 3-(5-tert-Butyltetrazol-1-yl)-5-(4-chloro-3-fluorophenyl)-N-(2-cyanopropan-2-yl)-benzamide] | 210 nM | 261.5 °C |
| Cc1ccc(-c2cc(C(=O)NC(C)(C)C3CC3)cc(-n3nnnc3C3CC3)c2)cc1 [Example 35, N-(2-Cyclopropylpropan-2-yl)-3-(5-cyclopropyltetrazol-1-yl)-5-(4-methylphenyl)-benzamide] | 450 nM | 74.5 °C |
| Cc1nnnn1-c1cc(C(=O)NC2(C)CCS(=O)(=O)C2)cc(-c2ccc(F)cc2)c1 (racemic) [Example 87, (RS)-3-(4-Fluorophenyl)-N-(3-methyl-1,1-dioxothiolan-3-yl)-5-(5-methyltetrazol-1-yl)-benzamide] | 290 nM | 117 °C |
| Cc1nnnn1-c1cc(C(=O)NC(C)(C)C)cc(-c2ccc(F)cc2)c1 [Example 80, N-tert-Butyl-3-(4-fluorophenyl)-5-(5-methyltetrazol-1-yl)-benzamide] | 180 nM | 80 °C |
| CCC(C)(C)NC(=O)c1cc(-c2ccc(Cl)cc2)cc(-n2cnnn2)c1 [Example 11, 3-(4-Chlorophenyl)-N-(2-methylbutan-2-yl)-5-(tetrazol-1-yl)-benzamide] | 76 nM | 206 °C |
| Cc1nnnn1-c1cc(C(=O)NC(C)(C)C2CC2)cc(-c2ccc(F)cc2)c1 [Example 85, N-(2-Cyclopropylpropan-2-yl)-3-(4-fluorophenyl)-5-(5-methyltetrazol-1-yl)-benzamide] | 290 nM | 78 °C |
| CC(C)(C)NC(=O)c1cc(-c2ccc(Cl)cc2)cc(-n2nnnc2C2CC2)c1 [Example 56, N-tert-Butyl-3-(4-chlorophenyl)-5-(5-cyclopropyltetrazol-1-yl)-benzamide] | 180 nM | 90 °C |
| Cc1ccc(-c2cc(C(=O)NC(C)(C)C3CC3)cc(-n3nnnc3C(C)(C)C)c2)cc1 [Example 109, 3-(5-tert-Butyltetrazol-1-yl)-N-(2-cyclopropylpropan-2-yl)-5-(4-methylphenyl)-benzamide] | 370 nM | 91.5 °C |
| CC(C)(CO)NC(=O)c1cc(-c2ccc(F)cc2)cc(-n2nnnc2C2CC2)c1 [Example 71, 3-(5-Cyclopropyltetrazol-1-yl)-5-(4-fluorophenyl)-N-(1-hydroxy-2-methylpropan-2-yl)-benzamide] | 410 nM | 80 °C |
| CC1(NC(=O)c2cc(-c3ccc(F)cc3)cc(-n3nnnc3C3CC3)c2)CCS(=O)(=O)C1 (racemic) [Example 77, (RS)-3-(5-Cyclopropyltetrazol-1-yl)-5-(4-fluorophenyl)-N-(3-methyl-1,1-dioxothiolan-3-yl)-benzamide] | 250 nM | 120 °C |
